Results on one compound are retold here after patent publication US20210196635A1, “DRUG-CONTAINING PARTICLE” (TOWA PHARMACEUTICAL CO., LTD., priority 2018, published 2021).

A short description of the data set: Average particle diameter (D50) of powder. Format: physicochemical. As to conditions: powder as used for coating. The source says:
The term “an average particle diameter” used herein refers to a particle diameter of 50% cumulative percentage (D50) on volume-based measurement of powder particle, which can be measured on the mass with a commercially available laser diffraction type particle size distribution measuring device and sonic wave vibration type sieving analyzer.

The structures appear in SMILES notation.

For the compound `C[C@H]1COc2c(N3CCN(C)CC3)c(F)cc3c(=O)c(C(=O)O)cn1c23.C[C@H]1COc2c(N3CCN(C)CC3)c(F)cc3c(=O)c(C(=O)O)cn1c23.O` [Compound A, levofloxacin 0.5 hydrate], the average particle diameter is recorded as 3.38 μm.
